Converted amounts (≈) assume the structure as drawn.
Key:
60 cancer cell lines = experiment: NCI-60 one-dose screen (10 μM); type: cell-based; conditions: Homo sapiens; one dose of 10 μM, mean over 60 cancer cell lines; read-out: Mean Growth Percent (MGP)
Description: Additionally, the mean of the growth percentages (MGP) of each compound against all the 60 cancer cell lines is also reported, which is used as one of the selection criteria to continue with tests at five concentration doses.

[1] = tested on: N. gonorrhoeae ATCC 49226; experiment: MIC on GC agar plates; type: cell-based, Neisseria gonorrhoeae; conditions: Neisseria gonorrhoeae, ATCC49226, read-out: MIC
Description: An initial screening for bacterial inhibition was performed by the agar diffusion method. […] DMSO and TSB were included as negative controls. Gentamicin and trimethoprim sulfamethoxazole were included as a positive control for growth inhibition. Derivatives showing growth inhibition were tested at least twice before being selected for the microdilution test. For N. gonorrhoeae, the agar diffusion method was also used for screening with some modifications. […] Penicillin and tetracycline were used as controls. […] Briefly, GC agar supplemented with 1% isovitalex was prepared with increasing concentrations of the new compounds and inoculated with 10 µL of a bacterial suspension (1 × 10^4 CFU). The lowest concentration of the compound that inhibited bacterial growth was determined as the MIC. Bacterial growth was examined and verified using the oxidase test. The experiments were performed in duplicate in at least two independent assays.

[2] = Hemolytic activity, spectrophotometric; type: cell-based, human; conditions: human, human red blood cells (huRBC), 5% hematocrit, 200 μg/mL, 37 °C
[3] = tested on: M. tuberculosis ATCC 27294; experiment: Antitubercular broth microdilution MIC; type: cell-based; conditions: Mycobacterium tuberculosis; M. tuberculosis ATCC 27294 (H37Rv); read-out: Minimum inhibitory concentration (MIC)

Row | Compound | activity at 10 µM (60 cancer cell lines) [%] | MIC [1] [µg/mL] | hemolysis at 24 h, 200 µg/mL [2] [%] | MIC [3] [µg/mL]
1 | COc1cc(/C=C/C(=O)c2ccccc2)ccc1Oc1nc(NCCO)nc(N2CCOCC2)n1 [20a] | 92.1 | – | – | –
2 | COc1ccc(C(=O)/C=C/c2ccc(Oc3nc(NCCO)nc(N4CCOCC4)n3)c(OC)c2)cc1 [20c] | 72 | – | – | –
3 | COc1cc(/C=C/C(=O)c2ccc(Cl)cc2)ccc1Oc1nc(NCCO)nc(N2CCOCC2)n1 [20e] | 94.7 | – | – | –
4 | COc1cc(/C=C/C(=O)c2ccc(F)cc2)ccc1Oc1nc(NCCO)nc(N2CCOCC2)n1 [20f] | 72.4 | – | – | –
5 | COc1cc(/C=C/C(=O)c2ccc(C(F)(F)F)cc2)ccc1Oc1nc(NCCO)nc(N2CCOCC2)n1 [20g] | 77.7 | – | – | –
6 | COc1ccc(C(=O)/C=C/c2ccc(Oc3nc(Nc4ccc(F)cc4)nc(N(C)C)n3)c(OC)c2)cc1 [21c] | 48.4 | – | – | –
7 | COc1cc(/C=C/C(=O)c2ccc(Cl)cc2)ccc1Oc1nc(Nc2ccc(F)cc2)nc(N(C)C)n1 [21e] | 73.1 | – | – | –
8 | COc1cc(/C=C/C(=O)c2ccc(F)cc2)ccc1Oc1nc(Nc2ccc(F)cc2)nc(N(C)C)n1 [21f] | 56 | 500 (≈ 993 µM) | 0.8 | –
9 | COc1cc(/C=C/C(=O)c2ccc(C(F)(F)F)cc2)ccc1Oc1nc(Nc2ccc(F)cc2)nc(N(C)C)n1 [21g] | 73.2 | – | – | –
10 | Cc1ccc(/C=C/C(=O)c2ccc(S(=O)(=O)NCCNc3nc(N(C)C)nc(N4CCOCC4)n3)cc2)cc1 [23b] | 72.3 | – | 1.8 | –
11 | COc1ccc(/C=C/C(=O)c2ccc(S(=O)(=O)NCCNc3nc(N(C)C)nc(N4CCOCC4)n3)cc2)cc1 [23c] | 81.5 | – | 0 | –
12 | COc1cc(C2CC(c3ccccc3)=Nc3c(N)nc(N)nc3N2)ccc1Oc1nc(NCCO)nc(N2CCOCC2)n1 (centres unmarked) [28a] | 98.8 | 4 (≈ 6.67 µM) | 3 | –
13 | COc1cc(C2CC(c3ccc(C)cc3)=Nc3c(N)nc(N)nc3N2)ccc1Oc1nc(NCCO)nc(N2CCOCC2)n1 (centres unmarked) [28b] | 89.7 | 4 (≈ 6.52 µM) | 5 | –
14 | COc1ccc(C2=Nc3c(N)nc(N)nc3NC(c3ccc(Oc4nc(NCCO)nc(N5CCOCC5)n4)c(OC)c3)C2)cc1 (centres unmarked) [28c] | 102 | 0.5 (≈ 0.794 µM) | 7 | –
15 | COc1cc(C2CC(c3cc(OC)c(OC)c(OC)c3)=Nc3c(N)nc(N)nc3N2)ccc1Oc1nc(NCCO)nc(N2CCOCC2)n1 (centres unmarked) [28d] | 98.9 | 2 (≈ 2.9 µM) | 1 | –
16 | COc1cc(C2CC(c3ccc(Cl)cc3)=Nc3c(N)nc(N)nc3N2)ccc1Oc1nc(NCCO)nc(N2CCOCC2)n1 (centres unmarked) [28e] | 70.2 | 8 (≈ 12.6 µM) | 5 | –
17 | COc1cc(C2CC(c3ccc(F)cc3)=Nc3c(N)nc(N)nc3N2)ccc1Oc1nc(NCCO)nc(N2CCOCC2)n1 (centres unmarked) [28f] | 98.2 | 8 (≈ 13 µM) | 2 | –
18 | COc1cc(C2CC(c3ccccc3)=Nc3c(N)nc(N)nc3N2)ccc1Oc1nc(Nc2ccc(F)cc2)nc(N(C)C)n1 (centres unmarked) [29a] | 40.2 | 2 (≈ 3.29 µM) | 3 | 5 (≈ 8.23 µM)
19 | COc1cc(C2CC(c3ccc(C)cc3)=Nc3c(N)nc(N)nc3N2)ccc1Oc1nc(Nc2ccc(F)cc2)nc(N(C)C)n1 (centres unmarked) [29b] | 51.3 | ≥ 500 | – | 0.6 (≈ 0.965 µM)
20 | CN(C)c1nc(NCCNS(=O)(=O)c2ccc(C3=Nc4c(N)nc(N)nc4NC(c4ccccc4)C3)cc2)nc(N2CCOCC2)n1 (centres unmarked) [30a] | 85.4 | – | 0.6 | –
21 | Cc1ccc(C2CC(c3ccc(S(=O)(=O)NCCNc4nc(N(C)C)nc(N5CCOCC5)n4)cc3)=Nc3c(N)nc(N)nc3N2)cc1 (centres unmarked) [30b] | 49.9 | – | 0.2 | –
